Assay results taken from patent US20110098242A1, “Methods and Compositions for Diagnosing and Treating Cervical Intraepithelial Neoplasia and Cervical Cancer” (priority 2008, published 2011).

Tests used:
Format in all cases: cell-based, human
cystatin E/M gene = experiment: RT PCR analysis of cystatin E/M expression in treated SiHa cells
cystatin E/M [1] = experiment: Immunofluorescence of cystatin E/M protein in treated SiHa cells; details: TSA treatment
Text: (§1) To verify that cystatin E/M expression was not limited to RNA synthesis and to identify the cellular location of protein expression, immunofluorescence (IF) was used. Cystatin E/M expression was absent in the untreated HeLa cells. […] There was uniform expression in the cytoplasm of all cells. […] Thus, re-expression of the gene by treatment with 5-AzaCdR and TSA in HeLa and SiHa cells, respectively, confirmed promoter methylation and/or histone deacetylation playing a role in the inactivation of cystatin E/M expression in these two cell lines.
(§2) Cells were grown overnight on cover slips to semiconfluency (about 70 to 80%) and treated with 5- AzaCdR or TSA, or transfected with plasmid DNAs. Immunofluorescence was performed using the anti cystatin E/M antibody (R & D Systems, Minneapolis, Minn.) following an established protocol. See LoTempio et al. (2005).

cystatin E/M [2] = experiment: Immunofluorescence of cystatin E/M protein in treated HeLa cells; details: 24 hours post-treatment, 5 μM 5-AzaCdR
Text: as §1, §2

[3] = tested on: cystatin E/M gene promoter; experiment: Sodium bisulfite PCR and sequencing of cystatin E/M promoter CpG methylation in HeLa cells; details: HeLa cells after treatment with 5-AzaCdR
Experimental: Having established the promoter activity, four different cell lines and 18 primary tumors were examined for CpG methylation using the sodium bisulfite protocol. Normal endometrium from 16 of the tumors, four different non-involved normal lymphocytes and a lung tissue were used as controls. The analysis was performed using the sequences spanning the −14 to −151 by region of the promoter (NT—033903.7). […] Untreated HeLa cells yielded the 138 by product with the methylation specific PCR. Cell lines Caski, C41, C33A, three of 21 normal tissues (14%) and 7 of 16 tumors (44%) gave the PCR product with both the unmethylation and methylation specific PCRs. Five other tumors (31%) contained only the methlyation specific product. Thus, there was a significant frequency of methylated promoter in the cervical tumors ([…] in tumors versus 3 of 21, 14% in normals, P<0.01, Student's t-test). Methylation in the three normal endometrial tissues could also represent tumor cell contamination. Four of the tumors contained methylation and point mutation (Table 1, FIG. 4A) indicating possible two hits for the functional inactivation of the cystatin E/M gene.
To confirm promoter hypermethylation in the cell lines, sequencing was carried out on the PCR products cloned into the pTOPO plasmid vector. […]

| SMILES | cystatin E/M RNA expression (cystatin E/M gene; TSA 150 μM) | cystatin E/M protein expression by immunofluorescence (cystatin E/M [1]) | cystatin E/M protein expression by immunofluorescence (cystatin E/M [2]) | cystatin E/M RNA expression (cystatin E/M gene; 5 μM and 10 μM 5-AzaCdR) | cystatin E/M RNA expression (cystatin E/M gene; 50 μM 5-AzaCdR) | methylation of C residues in promoter CpG sequences [3] |
| --- | --- | --- | --- | --- | --- | --- |
| CC(/C=C/C(=O)NO)=C\[C@@H](C)C(=O)c1ccc(N(C)C)cc1 [TSA, Trichostatin A] | High level RNA expression | uniform cytoplasmic protein expression |  |  |  |  |
| Nc1ncn([C@H]2C[C@H](O)[C@@H](CO)O2)c(=O)n1 [5-AzaCdR, 5′Aza 2-deoxycytidine] |  |  | cystatin E/M expression was observed | did not show expression | low level expression | demethylation of the C residues |
